Reference: PubChem BioAssay AID2060483 (Molecular Pharmacology Branch, DTP, NCI, 2025)

Test system: K24384-001-R-PDC complex spheroids, viability
Assay: Anticancer human tumor K24384-001-R-PDC patient-derived pancreatic adenocarcinoma cell line growth inhibition [GQUAD]
Conditions: for IC50: curve of first compound; for viability, T/C: stronger effect = lower value
Method in brief: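 Multi-cell-type spheroids of tumor cells with HUVEC and mesenchymal stem cells, treated with drug combinations. Concentrations descend in half-log steps from near clinical Cmax, or from 10 microM where Cmax is unknown; viability read-out.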

[1] = second compound 0.0316 µM, first compound 0.000999 µM
[2] = second compound 0.0316 µM, first compound 0.00316 µM
[3] = second compound 0.0316 µM, first compound 0.00999 µM
[4] = second compound 0.0316 µM, first compound 0.0316 µM
[5] = second compound 0.0316 µM, first compound 0.0999 µM
[6] = second compound 0.0316 µM, first compound 0.316 µM
[7] = second compound 0.1 µM, first compound 0.000999 µM
[8] = second compound 0.1 µM, first compound 0.00316 µM
[9] = second compound 0.1 µM, first compound 0.00999 µM
[10] = second compound 0.1 µM, first compound 0.0316 µM
[11] = second compound 0.1 µM, first compound 0.0999 µM
[12] = second compound 0.1 µM, first compound 0.316 µM
[13] = second compound 0.316 µM, first compound 0.000999 µM
[14] = second compound 0.316 µM, first compound 0.00316 µM
[15] = second compound 0.316 µM, first compound 0.00999 µM
[16] = second compound 0.316 µM, first compound 0.0316 µM
[17] = second compound 0.316 µM, first compound 0.0999 µM
[18] = second compound 0.316 µM, first compound 0.316 µM
[19] = second compound 1 µM, first compound 0.000999 µM
[20] = second compound 1 µM, first compound 0.00316 µM
[21] = second compound 1 µM, first compound 0.00999 µM
[22] = second compound 1 µM, first compound 0.0316 µM
[23] = second compound 1 µM, first compound 0.0999 µM
[24] = second compound 1 µM, first compound 0.316 µM
[25] = second compound 3.16 µM, first compound 0.000999 µM
[26] = second compound 3.16 µM, first compound 0.00316 µM
[27] = second compound 3.16 µM, first compound 0.00999 µM
[28] = second compound 3.16 µM, first compound 0.0316 µM
[29] = second compound 3.16 µM, first compound 0.0999 µM
[30] = second compound 3.16 µM, first compound 0.316 µM
[31] = second compound 10 µM, first compound 0.000999 µM
[32] = second compound 10 µM, first compound 0.00316 µM
[33] = second compound 10 µM, first compound 0.00999 µM
[34] = second compound 10 µM, first compound 0.0316 µM
[35] = second compound 10 µM, first compound 0.0999 µM
[36] = second compound 10 µM, first compound 0.316 µM
[37] = second compound 0.0316 µM, first compound 0.1 µM
[38] = second compound 0.0316 µM, first compound 1 µM
[39] = second compound 0.0316 µM, first compound 3.16 µM
[40] = second compound 0.0316 µM, first compound 10 µM
[41] = second compound 0.1 µM, first compound 0.1 µM
[42] = second compound 0.1 µM, first compound 1 µM
[43] = second compound 0.1 µM, first compound 3.16 µM
[44] = second compound 0.1 µM, first compound 10 µM
[45] = second compound 0.316 µM, first compound 0.1 µM
[46] = second compound 0.316 µM, first compound 1 µM
[47] = second compound 0.316 µM, first compound 3.16 µM
[48] = second compound 0.316 µM, first compound 10 µM
[49] = second compound 1 µM, first compound 0.1 µM
[50] = second compound 1 µM, first compound 1 µM
[51] = second compound 1 µM, first compound 3.16 µM
[52] = second compound 1 µM, first compound 10 µM
[53] = second compound 3.16 µM, first compound 0.1 µM
[54] = second compound 3.16 µM, first compound 1 µM
[55] = second compound 3.16 µM, first compound 3.16 µM
[56] = second compound 3.16 µM, first compound 10 µM
[57] = second compound 10 µM, first compound 0.1 µM
[58] = second compound 10 µM, first compound 1 µM
[59] = second compound 10 µM, first compound 3.16 µM
[60] = second compound 10 µM, first compound 10 µM
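Further: spheroids exposed to compounds for seven days.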

Structure (SMILES): CC[C@@]1(O)C(=O)OCc2c1cc1n(c2=O)Cc2cc3c(CN(C)C)c(O)ccc3nc2-1 + CN(C)c1ccc(Nc2c3ccc(NC(=O)CCN4CCCC4)cc3nc3cc(NC(=O)CCN4CCCC4)ccc23)cc1
- IC50 (second compound 0.0316 µM): 89.7 nM
- IC50 (second compound 0.1 µM): 95.5 nM
- IC50 (second compound 0.316 µM): 269 nM
- IC50 (second compound 1 µM): 125 nM
- IC50 (second compound 3.16 µM): 153 nM
- IC50 (second compound 10 µM): 155 nM
- viability, T/C [1]: 102%
- viability, T/C [2]: 101%
- viability, T/C [3]: 101%
- viability, T/C [4]: 77.5%
- viability, T/C [5]: 47.8%
- viability, T/C [6]: 42.5%
- viability, T/C [7]: 99.8%
- viability, T/C [8]: 96.7%
- viability, T/C [9]: 103%
- viability, T/C [10]: 74.4%
- viability, T/C [11]: 51.8%
- viability, T/C [12]: 38.8%
- viability, T/C [13]: 96.9%
- viability, T/C [14]: 99.6%
- viability, T/C [15]: 89.1%
- viability, T/C [16]: 89.9%
- viability, T/C [17]: 55.5%
- viability, T/C [18]: 49.2%
- viability, T/C [19]: 99.8%
- viability, T/C [20]: 103%
- viability, T/C [21]: 96%
- viability, T/C [22]: 82.4%
- viability, T/C [23]: 52.4%
- viability, T/C [24]: 39.3%
- viability, T/C [25]: 102%
- viability, T/C [26]: 90.7%
- viability, T/C [27]: 88.5%
- viability, T/C [28]: 93.1%
- viability, T/C [29]: 50.8%
- viability, T/C [30]: 48.6%
- viability, T/C [31]: 103%
- viability, T/C [32]: 103%
- viability, T/C [33]: 105%
- viability, T/C [34]: 109%
- viability, T/C [35]: 57.4%
- viability, T/C [36]: 38%

Structure (SMILES): CCc1c2c(nc3ccc(O)cc13)-c1cc3c(c(=O)n1C2)COC(=O)[C@]3(O)CC + CN(C)c1ccc(Nc2c3ccc(NC(=O)CCN4CCCC4)cc3nc3cc(NC(=O)CCN4CCCC4)ccc23)cc1
- IC50 (second compound 0.0316 µM): 7.33 nM
- IC50 (second compound 0.1 µM): 8.91 nM
- IC50 (second compound 0.316 µM): 5.68 nM
- IC50 (second compound 1 µM): 5.64 nM
- IC50 (second compound 3.16 µM): 3.47 nM
- IC50 (second compound 10 µM): 16.2 nM
- viability, T/C [1]: 80.2%
- viability, T/C [2]: 78.2%
- viability, T/C [3]: 39.6%
- viability, T/C [4]: 32.2%
- viability, T/C [5]: 35.4%
- viability, T/C [6]: 30.3%
- viability, T/C [7]: 69.6%
- viability, T/C [8]: 62.7%
- viability, T/C [9]: 49.7%
- viability, T/C [10]: 34.2%
- viability, T/C [11]: 36.1%
- viability, T/C [12]: 32.3%
- viability, T/C [13]: 73.2%
- viability, T/C [14]: 65.2%
- viability, T/C [15]: 35.2%
- viability, T/C [16]: 42.8%
- viability, T/C [17]: 33.6%
- viability, T/C [18]: 26.3%
- viability, T/C [19]: 69.8%
- viability, T/C [20]: 58.2%
- viability, T/C [21]: 39.9%
- viability, T/C [22]: 39.9%
- viability, T/C [23]: 28.6%
- viability, T/C [24]: 28%
- viability, T/C [25]: 82.3%
- viability, T/C [26]: 51.2%
- viability, T/C [27]: 37%
- viability, T/C [28]: 37.5%
- viability, T/C [29]: 34%
- viability, T/C [30]: 30.9%
- viability, T/C [31]: 70.7%
- viability, T/C [32]: 61.2%
- viability, T/C [33]: 59.4%
- viability, T/C [34]: 37.3%
- viability, T/C [35]: 36.6%
- viability, T/C [36]: 32.8%

Structure (SMILES): COc1cccc2c1C(=O)c1c(O)c3c(c(O)c1C2=O)CC(O)(C(=O)CO)CC3OC1CC(N)C(O)C(C)O1 (stereo not drawn) + CN(C)c1ccc(Nc2c3ccc(NC(=O)CCN4CCCC4)cc3nc3cc(NC(=O)CCN4CCCC4)ccc23)cc1
- IC50 (second compound 0.0316 µM): 215 nM
- IC50 (second compound 0.1 µM): 183 nM
- IC50 (second compound 0.316 µM): 120 nM
- IC50 (second compound 1 µM): 148 nM
- IC50 (second compound 3.16 µM): 169 nM
- IC50 (second compound 10 µM): 244 nM
- viability, T/C [4]: 94.6%
- viability, T/C [37]: 57.3%
- viability, T/C [6]: 54.4%
- viability, T/C [38]: 18.4%
- viability, T/C [39]: 4.88%
- viability, T/C [40]: 3.9%
- viability, T/C [10]: 92.5%
- viability, T/C [41]: 63.3%
- viability, T/C [12]: 38.2%
- viability, T/C [42]: 19.1%
- viability, T/C [43]: 5.65%
- viability, T/C [44]: 3.5%
- viability, T/C [16]: 79.4%
- viability, T/C [45]: 51.2%
- viability, T/C [18]: 35.3%
- viability, T/C [46]: 20.8%
- viability, T/C [47]: 6.33%
- viability, T/C [48]: 4.16%
- viability, T/C [22]: 90.7%
- viability, T/C [49]: 53.8%
- viability, T/C [24]: 39.3%
- viability, T/C [50]: 20.4%
- viability, T/C [51]: 5.66%
- viability, T/C [52]: 4.15%
- viability, T/C [28]: 83.2%
- viability, T/C [53]: 56.4%
- viability, T/C [30]: 39.2%
- viability, T/C [54]: 29.3%
- viability, T/C [55]: 5.72%
- viability, T/C [56]: 5.1%
- viability, T/C [34]: 80.9%
- viability, T/C [57]: 101%
- viability, T/C [36]: 38%
- viability, T/C [58]: 35%
- viability, T/C [59]: 9.76%
- viability, T/C [60]: 2.73%

Structure (SMILES): Nc1ccn(C2OC(CO)C(O)C2(F)F)c(=O)n1 (stereo not drawn) + CN(C)c1ccc(Nc2c3ccc(NC(=O)CCN4CCCC4)cc3nc3cc(NC(=O)CCN4CCCC4)ccc23)cc1
- IC50 (second compound 0.0316 µM): 238 nM
- IC50 (second compound 0.1 µM): 157 nM
- IC50 (second compound 0.316 µM): 152 nM
- IC50 (second compound 1 µM): 111 nM
- IC50 (second compound 3.16 µM): 144 nM
- IC50 (second compound 10 µM): 118 nM
- viability, T/C [4]: 73.4%
- viability, T/C [37]: 66.5%
- viability, T/C [6]: 40.9%
- viability, T/C [38]: 35.9%
- viability, T/C [39]: 23.1%
- viability, T/C [40]: 21.4%
- viability, T/C [10]: 78.1%
- viability, T/C [41]: 57.2%
- viability, T/C [12]: 38.2%
- viability, T/C [42]: 30.8%
- viability, T/C [43]: 19.8%
- viability, T/C [44]: 19.8%
- viability, T/C [16]: 68.1%
- viability, T/C [45]: 56.6%
- viability, T/C [18]: 38.7%
- viability, T/C [46]: 30.3%
- viability, T/C [47]: 20.6%
- viability, T/C [48]: 17.2%
- viability, T/C [22]: 71.9%
- viability, T/C [49]: 49.9%
- viability, T/C [24]: 39.2%
- viability, T/C [50]: 24.4%
- viability, T/C [51]: 19.9%
- viability, T/C [52]: 16.8%
- viability, T/C [28]: 76.5%
- viability, T/C [53]: 57.6%
- viability, T/C [30]: 33.7%
- viability, T/C [54]: 23.3%
- viability, T/C [55]: 18.6%
- viability, T/C [56]: 15.6%
- viability, T/C [34]: 63.6%
- viability, T/C [57]: 54.1%
- viability, T/C [36]: 32.8%
- viability, T/C [58]: 27.9%
- viability, T/C [59]: 18.3%
- viability, T/C [60]: 18.2%
